Measurements as given in ChEMBL document CHEMBL4020833, “A Systematic Exploration of Macrocyclization in Apelin-13: Impact on Binding, Signaling, Stability, and Cardiovascular Effects” (J Med Chem, 2018).
Starred links: 1 amine or outer side, 2 acyl side, 3 side chain; linkers in the order of their positions; H or OH if unused. Positions of bridges follow the written chain, without caps; N, C: chain ends. Non-standard residues stand in square brackets, D forms with d. Residues, ends and D or L forms follow the SMILES beside them. *: point of attachment. X1 = O=C([C@H](CCN(CC=[*:3])S(=O)(=O)c1ccccc1[N+](=O)[O-])N[*:1])[*:2]; X6 = N=C(N)NCCC[C@H](NC(=O)[C@@H]1CCC(=O)N1)C(=O)[C@@H]1CCCN1*; X3 = C=CCN([C@@H](CCCNC(=N)N)C(=O)[*:2])[*:1]; X5 = O=C([C@H](CCNCC=[*:3])N[*:1])[*:2]; AllylGly = C=CC[C@H](N)C(=O)O; pGlu = O=C1CC[C@@H](C(=O)O)N1; Nle = CCCC[C@H](N)C(=O)O; CO = O=C([*:1])[*:2]

What was measured:
Apelin receptor [1] = molecular target: T1, Apelin receptor (Homo sapiens, UniProt P35414); assay: Displacement of [125I]-[Nle75, Tyr77] Pyr1-apelin-13 from YFP-tagged human APJ receptor expressed in HEK293 cell membranes after 1 hr by gamma-counting method
T1 sequence (P35414 whole entry): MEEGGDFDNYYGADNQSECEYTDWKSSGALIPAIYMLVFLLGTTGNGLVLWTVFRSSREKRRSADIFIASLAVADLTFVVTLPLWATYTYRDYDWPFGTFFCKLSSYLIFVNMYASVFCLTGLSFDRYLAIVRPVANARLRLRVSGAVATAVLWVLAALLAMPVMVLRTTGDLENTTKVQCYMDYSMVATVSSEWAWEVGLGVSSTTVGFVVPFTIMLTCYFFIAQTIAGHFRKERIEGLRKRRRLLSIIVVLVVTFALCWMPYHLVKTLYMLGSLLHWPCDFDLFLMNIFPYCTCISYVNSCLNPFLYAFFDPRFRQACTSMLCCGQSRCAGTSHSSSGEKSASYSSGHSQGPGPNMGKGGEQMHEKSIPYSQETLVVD

Apelin receptor [2] = molecular target: T1, Apelin receptor; assay: Activity at human APJ receptor expressed in HEK293 cells assessed as dissociation of Galphai1 from Gbetagamma subunit after 5 mins by BRET assay; type: cell-based
Apelin receptor [3] = molecular target: T1, Apelin receptor; assay: Activity at GFP10-tagged human APJ receptor expressed in HEK293 cells assessed as induction of RlucII-tagged beta-arrestin-2 recruitment after 30 mins by BRET assay; type: cell-based

| SMILES | Ki (Apelin receptor [1]) | further results |
| --- | --- | --- |
| CCCC[C@@H]1NC(=O)[C@@H]2CCCN2C(=O)[C@@H](NC(=O)[C@H](CCCCN)NC(=O)[C@H](Cc2cnc[nH]2)NC(=O)[C@H](CO)NC(=O)[C@H](CC(C)C)NC(=O)[C@H](CCCNC(=N)N)NC(=O)[C@@H]2CCCN2C(=O)[C@H](CCCNC(=N)N)NC(=O)[C@@H]2CCC(=O)N2)CCN(S(=O)(=O)c2ccccc2[N+](=O)[O-])C/C=C\C[C@H](C(=O)O)NC(=O)[C@@H]2CCCN2C1=O |  | Ki (Apelin receptor [1]; hek293): 0.1 nM; EC50 (Apelin receptor [2]; hek293): 1.7 nM; EC50 (Apelin receptor [3]; hek293): 63 nM |
| CCCC[C@@H]1NC(=O)[C@@H](NC(=O)CNC(=O)[C@H](CCCCN)NC(=O)[C@H](Cc2cnc[nH]2)NC(=O)[C@H](CO)NC(=O)[C@H](CC(C)C)NC(=O)[C@H](CCCNC(=N)N)NC(=O)N2CCC[C@H]2C(=O)[C@H](CCCNC(=N)N)NC(=O)[C@@H]2CCC(=O)N2)C/C=C\C[C@@H](C(=O)O)NC(=O)[C@H](Cc2ccccc2)NC(=O)[C@@H]2CCCN2C1=O ({X6-CO}-RLSHKG[AllylGly][Nle]PF[AllylGly]-OH; staple (Z) 7-11) | 310 nM |  |
| CCCC[C@H](NC(=O)[C@@H]1CCCN1C(=O)CNC(=O)[C@@H]1C/C=C\C[C@H](NC(=O)[C@@H]2CCCN2C(=O)[C@H](CCCNC(=N)N)NC(=O)[C@@H]2CCC(=O)N2)C(=O)N[C@@H](CC(C)C)C(=O)N[C@@H](CO)C(=O)N[C@@H](Cc2cnc[nH]2)C(=O)N1)C(=O)N1CCC[C@H]1C(=O)N[C@@H](Cc1ccccc1)C(=O)O ([pGlu]RP[AllylGly]LSH[AllylGly]GP[Nle]PF-OH; staple (Z) 4-8) | 6070 nM |  |
| C=CC[C@H](NC(=O)[C@H](CC(C)C)NC(=O)[C@H](CCCNC(=N)N)NC(=O)[C@@H]1CCCN1C(=O)[C@H](CC=C)NC(=O)[C@@H]1CCC(=O)N1)C(=O)N[C@@H](Cc1cnc[nH]1)C(=O)N[C@@H](CCCCN)C(=O)NCC(=O)N1CCC[C@H]1C(=O)N[C@@H](CCCC)C(=O)N1CCC[C@H]1C(=O)N[C@@H](Cc1ccccc1)C(=O)O | 523 nM |  |
| CCCC[C@H](NC(=O)[C@@H]1CCCN1C(=O)[C@@H]1C/C=C\C[C@H](NC(=O)[C@H](CCCNC(=N)N)NC(=O)[C@@H]2CCCN2C(=O)[C@H](CCCNC(=N)N)NC(=O)[C@@H]2CCC(=O)N2)C(=O)N[C@@H](CO)C(=O)N[C@@H](Cc2cnc[nH]2)C(=O)N[C@@H](CCCCN)C(=O)N1)C(=O)N1CCC[C@H]1C(=O)N[C@@H](Cc1ccccc1)C(=O)O ([pGlu]RPR[AllylGly]SHK[AllylGly]P[Nle]PF-OH; staple (Z) 5-9) | 41 nM |  |
| CCCC[C@@H]1NC(=O)[C@@H]2CCCN2C(=O)[C@@H](N)CCN(S(=O)(=O)c2ccccc2[N+](=O)[O-])C/C=C\C[C@@H](C(=O)O)NC(=O)[C@@H]2CCCN2C1=O (H-[X1]P[Nle]P[AllylGly]-OH; staple (Z) 1-5) | > 10000 nM |  |
| CCCC[C@@H]1NC(=O)[C@@H]2CCCN2C(=O)[C@@H](NC(=O)[C@H](CCCCN)NC(=O)[C@H](Cc2cnc[nH]2)NC(=O)[C@H](CO)NC(=O)[C@H](CC(C)C)NC(=O)[C@H](CCCNC(=N)N)NC(=O)[C@@H]2CCCN2C(=O)[C@H](CCCNC(=N)N)NC(=O)[C@@H]2CCC(=O)N2)CCNC/C=C\C[C@H](C(=O)O)NC(=O)[C@@H]2CCCN2C1=O |  | Ki (Apelin receptor [1]; hek293): 206 nM |
| C=CC[C@H](NC(=O)[C@H](Cc1ccccc1)NC(=O)[C@@H]1CCCN1C(=O)[C@H](CCCC)NC(=O)[C@H](CC=C)NC(=O)CNC(=O)[C@H](CCCCN)NC(=O)[C@H](Cc1cnc[nH]1)NC(=O)[C@H](CO)NC(=O)[C@H](CC(C)C)NC(=O)[C@H](CCCNC(=N)N)NC(=O)[C@@H]1CCCN1C(=O)[C@H](CCCNC(=N)N)NC(=O)[C@@H]1CCC(=O)N1)C(=O)O ([pGlu]RPRLSHKG[AllylGly][Nle]PF[AllylGly]-OH) | 445 nM |  |
| CCCC[C@@H]1NC(=O)[C@@H]2CCCN2C(=O)[C@@H](N)CCNC/C=C\C[C@@H](C(=O)O)NC(=O)[C@@H]2CCCN2C1=O (H-[X5]P[Nle]P[AllylGly]-OH; staple (Z) 1-5) | > 10000 nM |  |
| C=CC[C@H](NC(=O)[C@H](Cc1cnc[nH]1)NC(=O)[C@H](CO)NC(=O)[C@H](CC(C)C)NC(=O)[C@H](CC=C)NC(=O)[C@@H]1CCCN1C(=O)[C@H](CCCNC(=N)N)NC(=O)[C@@H]1CCC(=O)N1)C(=O)NCC(=O)N1CCC[C@H]1C(=O)N[C@@H](CCCC)C(=O)N1CCC[C@H]1C(=O)N[C@@H](Cc1ccccc1)C(=O)O ([pGlu]RP[AllylGly]LSH[AllylGly]GP[Nle]PF-OH) | 489 nM |  |
| CCCC[C@@H]1NC(=O)[C@@H]2CCCN2C(=O)[C@@H](NC(=O)[C@H](CCCCN)NC(=O)[C@H](Cc2cnc[nH]2)NC(=O)[C@H](CO)NC(=O)[C@H](CC(C)C)NC(=O)[C@H](CCCNC(=N)N)NC(=O)[C@@H]2CCCN2C(=O)[C@H](CCCNC(=N)N)NC(=O)[C@@H]2CCC(=O)N2)CCNC/C=C\C[C@@H](C(=O)O)NC(=O)[C@@H]2CCCN2C1=O | 917 nM |  |
| C=CC[C@H](NC(=O)CNC(=O)[C@H](CCCCN)NC(=O)[C@H](Cc1cnc[nH]1)NC(=O)[C@H](CC=C)NC(=O)[C@H](CC(C)C)NC(=O)[C@H](CCCNC(=N)N)NC(=O)[C@@H]1CCCN1C(=O)[C@H](CCCNC(=N)N)NC(=O)[C@@H]1CCC(=O)N1)C(=O)N[C@@H](CCCC)C(=O)N1CCC[C@H]1C(=O)N[C@@H](Cc1ccccc1)C(=O)O ([pGlu]RPRL[AllylGly]HKG[AllylGly][Nle]PF-OH) | 194 nM |  |

Second part, led by results:

| Ki (Apelin receptor [1]) | SMILES | further results |
| --- | --- | --- |
| 2.5 nM | C=CC[C@H](NC(=O)[C@H](CCCNC(=N)N)NC(=O)[C@@H]1CCCN1C(=O)[C@H](CCCNC(=N)N)NC(=O)[C@@H](N)CC=C)C(=O)N[C@@H](CO)C(=O)N[C@@H](Cc1cnc[nH]1)C(=O)N[C@@H](CCCCN)C(=O)NCC(=O)N1CCC[C@H]1C(=O)N[C@@H](CCCC)C(=O)N1CCC[C@H]1C(=O)N[C@@H](Cc1ccccc1)C(=O)O | EC50 (Apelin receptor [2]): 0.4 nM; EC50 (Apelin receptor [3]): 35 nM |
| 0.3 nM | C=CC[C@H](NC(=O)[C@H](CO)NC(=O)[C@H](CC(C)C)NC(=O)[C@H](CCCNC(=N)N)NC(=O)[C@@H]1CCCN1C(=O)[C@H](CCCNC(=N)N)NC(=O)[C@@H]1CCC(=O)N1)C(=O)N[C@@H](CCCCN)C(=O)NCC(=O)N1CCC[C@H]1C(=O)N[C@@H](CC=C)C(=O)N1CCC[C@H]1C(=O)N[C@@H](Cc1ccccc1)C(=O)O ([pGlu]RPRLS[AllylGly]KGP[AllylGly]PF-OH) | EC50 (Apelin receptor [2]): 1 nM; EC50 (Apelin receptor [3]): 42 nM |
| 2.7 nM | C=CC[C@H](NC(=O)[C@H](Cc1cnc[nH]1)NC(=O)[C@H](CO)NC(=O)[C@H](CC(C)C)NC(=O)[C@H](CCCNC(=N)N)N(CC=C)C(=O)[C@@H]1CCCN1C(=O)[C@H](CCCNC(=N)N)NC(=O)[C@@H]1CCC(=O)N1)C(=O)NCC(=O)N1CCC[C@H]1C(=O)N[C@@H](CCCC)C(=O)N1CCC[C@H]1C(=O)N[C@@H](Cc1ccccc1)C(=O)O ([pGlu]RP[X3]LSH[AllylGly]GP[Nle]PF-OH) | EC50 (Apelin receptor [2]): 2.1 nM; EC50 (Apelin receptor [3]): 91 nM |
| 2.9 nM | C=CC[C@H](NC(=O)[C@H](CC(C)C)NC(=O)[C@H](CCCNC(=N)N)NC(=O)[C@@H]1CCCN1C(=O)[C@H](CCCNC(=N)N)N(CC=C)C(=O)[C@@H]1CCC(=O)N1)C(=O)N[C@@H](Cc1cnc[nH]1)C(=O)N[C@@H](CCCCN)C(=O)NCC(=O)N1CCC[C@H]1C(=O)N[C@@H](CCCC)C(=O)N1CCC[C@H]1C(=O)N[C@@H](Cc1ccccc1)C(=O)O | EC50 (Apelin receptor [2]): 5.7 nM; EC50 (Apelin receptor [3]): 232 nM |
| 3.9 nM | C=CC[C@H](NC(=O)[C@H](CCCNC(=N)N)NC(=O)[C@@H]1CCCN1C(=O)[C@H](CCCNC(=N)N)NC(=O)[C@@H]1CCC(=O)N1)C(=O)N[C@@H](CO)C(=O)N[C@@H](Cc1cnc[nH]1)C(=O)N[C@@H](CCCCN)C(=O)N[C@@H](CC=C)C(=O)N1CCC[C@H]1C(=O)N[C@@H](CCCC)C(=O)N1CCC[C@H]1C(=O)N[C@@H](Cc1ccccc1)C(=O)O ([pGlu]RPR[AllylGly]SHK[AllylGly]P[Nle]PF-OH) |  |
